Here are results for 2 compounds from PMC8843100, “Development of newly synthesised quinazolinone-based CDK2 inhibitors with potent efficacy against melanoma” (Journal of Enzyme Inhibition and Medicinal Chemistry, 2022).

Assay in all cases: NCI-60 single dose screen, sulforhodamine B
Format in all cases: cell-based, human

For test [1], the system named is COLO 205. The note with it: Colon cancer COLO 205; single dose 10^−5 M. The method, boiled down: (§1)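 A one-concentration test: 10 µM, from dry powder dissolved in DMSO. Plates got compound one day post-seeding and were incubated 2 more days, then fixed and SRB-stained.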
Test [2] concerns DU-145. The note with it: Prostate cancer DU-145; single dose 10^−5 M. In outline:
as §1

In test [3] the test system is HCT-116. Conditions: Colon cancer HCT-116; single dose 10^−5 M. In outline: as §1
In test [4] the test system is HCT-15. The note with it: Colon cancer HCT-15; single dose 10^−5 M. In outline: as §1
Test [5] concerns K-562. The note with it: Leukaemia K-562; single dose 10^−5 M. In outline: as §1
The test system of test [6] is LOX IMVI. The note with it: Melanoma LOX IMVI; single dose 10^−5 M. The method, boiled down: as §1
Test [7] has as its system M14. Conditions: Melanoma M14; single dose 10^−5 M. In outline: as §1
Test [8] concerns MDA-MB-231/ATCC. The note with it: Breast cancer MDA-MB-231/ATCC; single dose 10^−5 M. The method, boiled down:
as §1

Test [9] deals with MDA-MB-435. Conditions: Melanoma MDA-MB-435; single dose 10^−5 M. In outline: as §1
For test [10], the system named is MOLT-4. The note with it: Leukaemia MOLT-4; single dose 10^−5 M. In outline:
as §1

Test [11] concerns NCI-H226. Conditions: Non-small cell lung cancer NCI-H226; single dose 10^−5 M. The method, boiled down:
as §1

For test [12], the system named is NCI/ADR-RES. Conditions: Ovarian cancer NCI/ADR-RES; single dose 10^−5 M. In outline:
as §1

For test [13], the system named is OVCAR-5. The note with it: Ovarian cancer OVCAR-5; single dose 10^−5 M. The method, boiled down: as §1
Test [14] deals with RPMI-8226. Conditions: Leukaemia RPMI-8226; single dose 10^−5 M. In outline: as §1
In test [15] the test system is RXF 393. Conditions: Renal cancer RXF 393; single dose 10^−5 M. In outline:
as §1

Test [16] relates to SF-295. The note with it: CNS cancer SF-295; single dose 10^−5 M. The method, boiled down:
as §1

The subject of test [17] is SF-539. The note with it: CNS cancer SF-539; single dose 10^−5 M. In outline: as §1
In test [18] the test system is SK-MEL-28. The note with it: Melanoma SK-MEL-28; single dose 10^−5 M. In outline:
as §1

In test [19] the test system is SK-MEL-2. Conditions: Melanoma SK-MEL-2; single dose 10^−5 M. In outline:
as §1

The test system of test [20] is SNB-19. Conditions: CNS cancer SNB-19; single dose 10^−5 M. The method, boiled down: as §1
The test system of test [21] is SNB-75. Conditions: CNS cancer SNB-75; single dose 10^−5 M. The method, boiled down:
as §1

Test [22] has as its system SW-620. The note with it: Colon cancer SW-620; single dose 10^−5 M. In outline:
as §1

Test [23] relates to UACC-62. The note with it: Melanoma UACC-62; single dose 10^−5 M. The method, boiled down:
as §1

The test system of test [24] is UO-31. The note with it: Renal cancer UO-31; single dose 10^−5 M. The method, boiled down:
as §1

For the compound `O=C(CNn1c(COc2ccccc2)nc2ccccc2c1=O)Nc1ccccc1` [Compound 4a, 2-((4-oxo-2-(phenoxymethyl)quinazolin-3(4H)-yl)amino)-N-phenylacetamide], the “GI% at 10^−5 M” value in test [1], in test [2], in test [3], in test [4], in test [5] and in test [6] was “– (– means GI < 10%)” in each case. In addition, the “GI% at 10^−5 M” value in test [7] is on record as “– (– means GI < 10%)”; in test [8], 18.56%; in test [9], “– (– means GI < 10%)”; in test [10], “– (– means GI < 10%)”; in test [11], “– (– means GI < 10%)”; in test [12], “– (– means GI < 10%)”. The “GI% at 10^−5 M” value in test [13], in test [14], in [15], in [16], in test [17] and in test [18] was “– (– means GI < 10%)” each time. Besides, the “GI% at 10^−5 M” value was “– (– means GI < 10%)” in test [19]; “– (– means GI < 10%)” in test [20]; 62.34% in test [21]; “– (– means GI < 10%)” in [22]; “– (– means GI < 10%)” in test [23]; 21.57% in [24].

For the compound `O=C(CNn1c(COc2ccccc2)nc2ccccc2c1=O)Nc1ccc(Cl)cc1` [Compound 4c, N-(4-chlorophenyl)-2-((4-oxo-2-(phenoxymethyl)quinazolin-3(4H)-yl)amino)acetamide], the “GI% at 10^−5 M” value in test [1] is given as “– (– means GI < 10%)”; in [2] it was “– (– means GI < 10%)”; in [3] it was “– (– means GI < 10%)”; in test [4] it was “– (– means GI < 10%)”; in test [5], 10.43%; in [6] it was “– (– means GI < 10%)”. For the same compound, the “GI% at 10^−5 M” value is reported as “– (– means GI < 10%)” in test [7]; “– (– means GI < 10%)” in test [8]; “– (– means GI < 10%)” in [9]; 15.9% in test [10]; 11.13% in [11]; 10.99% in test [12]. Also, the “GI% at 10^−5 M” value in [13], in [14], in test [15], in test [16], in test [17] and in test [18] was “– (– means GI < 10%)” each time. Moreover, the “GI% at 10^−5 M” value in test [19] was “– (– means GI < 10%)”; in test [20], “– (– means GI < 10%)”; in [21] it was “– (– means GI < 10%)”; in [22] it was “– (– means GI < 10%)”; in test [23], 14.58%.
